# How the values were obtained:
# Sitophilus maize weevils [1] = assay: Weevil survival monitoring; type: in vivo, Sitophilus zeamais; conditions: S. zeamais mating pairs; 250 μg/ml or 2.5 mg/ml ciprofloxacin; 18 days
# Experimental: Sitophilus maize weevils (Sitophilus zeamais) were reared on organic corn at 27.5° C. and 70% relative humidity. Prior to being used for weevil rearing, corn was frozen for 7 days and then tempered to 10% humidity with sterile water. […] For treatments, the appropriate amount of stock solution was diluted in sterile water.
# Weevil survival was monitored daily for 18 days, after which DNA was extracted from the remaining weevils in each group. Briefly, the weevil body was surface sterilized by dipping the weevil into a 6% bleach solution for approximately 5 seconds. […] DNA concentration was measured using a nanodrop nucleic acid quantification, and SPE and weevil DNA copy numbers were measured by qPCR. […] The primers used for weevil (β-actin) were SACT144_FOR ([…]; SEQ ID NO: 240) and SACT314_REV ([…]; SEQ ID NO: 241) (Login et al., 2011). qPCR was performed using a qPCR amplification ramp of 1.6 degrees C./s and the following conditions: 1) 95° C. for 10 minutes, 2) 95° C. for 15 seconds, 3) 57° C. for 30 seconds, 4) repeat steps 2-3 40×, 5) 95° C. for 15 seconds, 6) 55° C. for 1 minute, 7) ramp change to 0.15 degrees C./s, 8) 95° C. for 1 second. qPCR data was analyzed using analytic (Thermo Fisher Scientific, QuantStudio Design and Analysis) software.
# Sitophilus maize weevils [2] = assay: Weevil F1 offspring development (dissection of corn kernels); type: in vivo, Sitophilus zeamais; conditions: for offspring in the larval form: after 25 days; for number of offspring found in dissected corn kernels: after 25 days (water 12)
# Escherichia coli DH5α = assay: Assessment of antibiotic penetration into corn (E. coli growth on LB plates); type: cell-based; conditions: kernels soaked in 2.5 or 0.25 mg/ml ciprofloxacin
# Experimental: The kernels were soaked for 1.5 hours as described herein. After soaking, kernels were air dried and assayed to determine whether the antibiotic was able to coat and penetrate the kernel. To test this, a concentrated sample of Escherichia coli DH5α in water was spread onto 5 Luria Broth (LB) plates. […] The plates were incubated overnight at 37 degrees C. and bacterial growth and/or zone(s) of inhibition were assessed the next day.
# A concentrated culture of E. coli was then spread onto LB plates and one of the coated kernels was then placed onto the center of the plate. The plates were incubated overnight, and bacterial growth was assessed the next day.
# The plates were incubated overnight and the next day bacterial growth was assessed.
# Sitophilus maize weevils [3] = assay: Weevil offspring emergence (fecundity); conditions: 2.5 mg/ml ciprofloxacin; till day 43
smiles,measurement,setting,value
O=C(O)c1cn(C2CC2)c2cc(N3CCNCC3)c(F)cc2c1=O [ciprofloxacin],weevil survival,Sitophilus maize weevils [1],all weevils remained alive for the course of the experiment
same,F1 weevil development,Sitophilus maize weevils [2]; 250 ug/ml and 2.5 mg/ml ciprofloxacin,showed a delay in development compared to control treated weevils
same,offspring in the larval form,Sitophilus maize weevils [2]; 250 ug/ml ciprofloxacin,38%
same,number of offspring found in dissected corn kernels,Sitophilus maize weevils [2]; 250 ug/ml ciprofloxacin,13 offspring
same,offspring in the larval form,Sitophilus maize weevils [2]; 2.5 mg/ml ciprofloxacin,65%
same,number of offspring found in dissected corn kernels,Sitophilus maize weevils [2]; 2.5 mg/ml ciprofloxacin,20 offspring
same,bacterial growth on plate with entire soaked corn kernel,Escherichia coli DH5α,no bacteria grew on plates with entire corn kernels
same,emerged F1 offspring,Sitophilus maize weevils [3],much less offspring that emerged

# Reference: US20190216093A1, “COMPOSITIONS AND RELATED METHODS FOR AGRICULTURE” (priority 2017, published 2019)
